# Source: US20260021103A1, “IKZF2 AND CK1-ALPHA DEGRADING COMPOUNDS AND USES THEREOF” (President and Fellows of Harvard College, priority 2022, published 2026)
# Assays:
# Format in all cases: cell-based
# [1] = target: T1, IKZF1 (Homo sapiens, UniProt Q13422+Q96SW2); experiment: Flow cytometry for measuring degradation, HEK293T GFP-POI reporter cells (IKZF1); conditions: for IKZF1% degradation at 100 nM / IKZF1% degradation at 1 μM: 24 h, HEK293T GFP reporter
# T1 construct: expressed in transfected cells; host or cells: HEK293T (lentiviral transduction, puromycin selection, FACS sorting)
# [2] = target: T2, CK1α (Homo sapiens, UniProt P48729+Q96SW2); experiment: Flow cytometry for measuring degradation, HEK293T GFP-POI reporter cells (CK1α); conditions: for CK1α % degradation at 100 nM / CK1α % degradation at 1 μM: 24 h, HEK293T GFP reporter
# T2 construct: expressed in transfected cells; host or cells: HEK293T (lentiviral transduction, puromycin selection, FACS sorting)
# [3] = target: GSPT1 (Homo sapiens, UniProt P15170+Q96SW2); experiment: Flow cytometry for measuring degradation, HEK293T GFP-POI reporter cells (GSPT1); design: expressed in transfected cells; host or cells: HEK293T; conditions: for GSPT1% degradation at 100 nM / GSPT1% degradation at 1 μM: 24 h, HEK293T GFP reporter
# [4] = target: T3, IKZF2 (Homo sapiens, UniProt Q96SW2+Q9UKS7); experiment: Flow cytometry for measuring degradation, HEK293T GFP-POI reporter cells (IKZF2); conditions: for IKZF2% degradation at 100 nM / IKZF2% degradation at 1 μM: 24 h, HEK293T GFP reporter
# T3 construct: expressed in transfected cells; host or cells: HEK293T (lentiviral transduction, puromycin selection, FACS sorting)
# T3 sequence (Q9UKS7 whole entry): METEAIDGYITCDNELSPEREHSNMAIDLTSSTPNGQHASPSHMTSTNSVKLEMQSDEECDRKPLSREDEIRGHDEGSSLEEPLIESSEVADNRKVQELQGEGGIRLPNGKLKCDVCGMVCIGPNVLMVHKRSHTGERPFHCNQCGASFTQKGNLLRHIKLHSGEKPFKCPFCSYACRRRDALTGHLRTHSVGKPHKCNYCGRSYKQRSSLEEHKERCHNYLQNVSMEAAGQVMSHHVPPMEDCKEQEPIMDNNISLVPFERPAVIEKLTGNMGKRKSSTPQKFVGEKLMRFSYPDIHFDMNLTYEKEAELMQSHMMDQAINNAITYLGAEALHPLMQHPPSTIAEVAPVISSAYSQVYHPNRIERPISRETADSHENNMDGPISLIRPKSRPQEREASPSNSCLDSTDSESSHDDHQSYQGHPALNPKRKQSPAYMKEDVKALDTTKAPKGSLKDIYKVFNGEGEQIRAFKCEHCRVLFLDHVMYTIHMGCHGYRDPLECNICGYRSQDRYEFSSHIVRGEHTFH
# T3 sequence (Q96SW2 whole entry): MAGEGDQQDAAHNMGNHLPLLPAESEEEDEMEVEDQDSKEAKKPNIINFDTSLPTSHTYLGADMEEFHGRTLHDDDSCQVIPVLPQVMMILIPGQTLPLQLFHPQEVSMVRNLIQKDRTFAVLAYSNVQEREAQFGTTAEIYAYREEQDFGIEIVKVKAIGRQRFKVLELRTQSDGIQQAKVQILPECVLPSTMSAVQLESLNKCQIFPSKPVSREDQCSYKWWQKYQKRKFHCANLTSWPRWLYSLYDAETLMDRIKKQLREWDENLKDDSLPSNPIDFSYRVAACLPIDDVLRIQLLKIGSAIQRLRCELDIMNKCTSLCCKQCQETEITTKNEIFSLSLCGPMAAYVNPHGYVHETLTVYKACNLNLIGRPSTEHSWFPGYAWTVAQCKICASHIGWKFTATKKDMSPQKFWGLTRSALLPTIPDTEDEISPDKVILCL
# T3 sequence (Q16531 whole entry partner): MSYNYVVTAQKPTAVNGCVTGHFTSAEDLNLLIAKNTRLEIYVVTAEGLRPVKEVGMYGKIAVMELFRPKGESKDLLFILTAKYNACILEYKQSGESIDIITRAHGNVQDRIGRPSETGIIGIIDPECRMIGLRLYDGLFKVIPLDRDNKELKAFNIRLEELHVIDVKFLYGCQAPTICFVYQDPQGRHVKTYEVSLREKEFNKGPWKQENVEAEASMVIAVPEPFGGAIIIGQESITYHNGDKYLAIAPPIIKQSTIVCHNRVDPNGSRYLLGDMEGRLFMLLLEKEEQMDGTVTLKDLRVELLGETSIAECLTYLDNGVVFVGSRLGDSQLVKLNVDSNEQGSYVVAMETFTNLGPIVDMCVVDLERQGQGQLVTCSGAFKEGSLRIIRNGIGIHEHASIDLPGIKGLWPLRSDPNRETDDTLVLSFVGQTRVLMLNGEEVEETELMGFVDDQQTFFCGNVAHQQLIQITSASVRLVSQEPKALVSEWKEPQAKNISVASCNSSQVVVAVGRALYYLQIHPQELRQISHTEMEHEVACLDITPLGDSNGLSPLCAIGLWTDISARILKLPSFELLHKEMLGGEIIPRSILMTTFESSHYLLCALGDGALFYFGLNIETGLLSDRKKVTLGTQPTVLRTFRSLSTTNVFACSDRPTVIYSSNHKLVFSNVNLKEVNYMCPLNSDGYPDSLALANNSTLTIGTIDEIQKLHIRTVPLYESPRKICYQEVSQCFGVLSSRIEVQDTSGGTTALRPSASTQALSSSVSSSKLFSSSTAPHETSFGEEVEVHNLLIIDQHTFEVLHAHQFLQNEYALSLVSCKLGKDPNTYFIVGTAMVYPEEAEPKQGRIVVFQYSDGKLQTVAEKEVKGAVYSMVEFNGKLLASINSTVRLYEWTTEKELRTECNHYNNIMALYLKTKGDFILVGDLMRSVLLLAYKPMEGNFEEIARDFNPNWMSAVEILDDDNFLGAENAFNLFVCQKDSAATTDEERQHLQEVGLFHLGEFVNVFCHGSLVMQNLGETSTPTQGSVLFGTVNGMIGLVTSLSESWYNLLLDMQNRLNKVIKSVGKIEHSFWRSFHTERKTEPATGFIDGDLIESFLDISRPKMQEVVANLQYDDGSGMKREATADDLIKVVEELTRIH
# T2 sequence (P48729 whole entry): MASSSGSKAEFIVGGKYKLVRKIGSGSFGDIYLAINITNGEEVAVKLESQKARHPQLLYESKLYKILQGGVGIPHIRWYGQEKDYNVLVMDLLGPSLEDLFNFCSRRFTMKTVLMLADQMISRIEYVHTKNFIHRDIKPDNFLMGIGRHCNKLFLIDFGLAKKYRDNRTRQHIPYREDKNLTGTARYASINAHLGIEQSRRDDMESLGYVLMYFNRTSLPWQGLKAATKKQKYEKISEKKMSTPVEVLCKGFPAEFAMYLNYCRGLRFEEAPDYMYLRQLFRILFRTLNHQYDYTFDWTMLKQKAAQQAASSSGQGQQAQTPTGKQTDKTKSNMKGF
# T2 sequence (Q96SW2 whole entry): as the sequence (Q96SW2 whole entry) above
# T2 sequence (Q16531 whole entry partner): as the sequence (Q16531 whole entry partner) above
# Sequence of GSPT1 (P15170 whole entry): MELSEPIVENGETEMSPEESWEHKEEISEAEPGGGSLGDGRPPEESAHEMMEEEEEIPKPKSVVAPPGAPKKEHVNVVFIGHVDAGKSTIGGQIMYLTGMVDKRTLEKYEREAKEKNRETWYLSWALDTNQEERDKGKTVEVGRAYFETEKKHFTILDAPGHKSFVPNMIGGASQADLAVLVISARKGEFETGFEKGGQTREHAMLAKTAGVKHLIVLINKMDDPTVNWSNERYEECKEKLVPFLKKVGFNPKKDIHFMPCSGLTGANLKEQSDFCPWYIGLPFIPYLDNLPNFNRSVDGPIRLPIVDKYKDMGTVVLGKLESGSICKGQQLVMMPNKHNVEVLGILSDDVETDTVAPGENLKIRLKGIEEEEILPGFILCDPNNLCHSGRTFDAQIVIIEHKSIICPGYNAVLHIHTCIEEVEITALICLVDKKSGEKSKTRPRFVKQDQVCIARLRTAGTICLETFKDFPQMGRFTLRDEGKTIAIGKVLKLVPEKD
# Sequence of GSPT1 (Q96SW2 whole entry): as the sequence (Q96SW2 whole entry) above
# Sequence of GSPT1 (Q16531 whole entry partner): as the sequence (Q16531 whole entry partner) above
# T1 sequence (Q13422 whole entry): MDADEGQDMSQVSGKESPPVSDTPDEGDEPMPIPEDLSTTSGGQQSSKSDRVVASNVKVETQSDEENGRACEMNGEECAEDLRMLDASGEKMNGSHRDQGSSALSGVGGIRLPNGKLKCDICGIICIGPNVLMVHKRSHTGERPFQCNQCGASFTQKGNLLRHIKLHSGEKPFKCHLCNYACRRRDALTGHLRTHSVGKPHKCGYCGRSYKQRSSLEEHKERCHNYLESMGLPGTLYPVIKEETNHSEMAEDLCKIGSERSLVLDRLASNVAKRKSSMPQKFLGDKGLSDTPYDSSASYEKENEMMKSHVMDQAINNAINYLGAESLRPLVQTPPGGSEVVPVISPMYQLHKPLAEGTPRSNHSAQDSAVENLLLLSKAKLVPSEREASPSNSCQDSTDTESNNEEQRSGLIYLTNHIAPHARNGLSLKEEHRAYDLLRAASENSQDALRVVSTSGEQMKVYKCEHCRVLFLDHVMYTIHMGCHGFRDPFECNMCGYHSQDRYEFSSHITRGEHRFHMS
# T1 sequence (Q96SW2 whole entry): as the sequence (Q96SW2 whole entry) above
# T1 sequence (Q16531 whole entry partner): as the sequence (Q16531 whole entry partner) above
SMILES,IKZF1% degradation at 100 nM [1] [%],IKZF1% degradation at 1 μM [1] [%],CK1α % degradation at 100 nM [2] [%],CK1α % degradation at 1 μM [2] [%],GSPT1% degradation at 100 nM [3] [%],GSPT1% degradation at 1 μM [3] [%],IKZF2% degradation at 100 nM [4] [%],IKZF2% degradation at 1 μM [4] [%],"Dmax ([1]; HEK-293T, Table 3) [%]","Dmax ([2]; CK1, Table 3, read-out: Dmax CK1a (%)) [%]","DC50 ([2]; Table 3, read-out: DC50 CK1a) [nM]","Dmax ([3]; HEK-293T, Table 3) [%]","Dmax ([4]; HEK-293T, Table 3) [%]",DC50 ([4]; Table 3) [nM]
"COc1ccc(Oc2cccc(C(=O)Nc3ccc4c(c3)CN(C3CCC(=O)NC3=O)C4=O)c2)cc1 (centres unmarked) [DEG-69, N-(2-(2,6-dioxopiperidin-3-yl)-1-oxoisoindolin-5-yl)-3-(4-methoxyphenoxy)benzamide]",98.6 ± 0.1,98.6 ± 0.1,64.8 ± 0.3,65.5 ± 2.3,12.5 ± 1.2,16.8 ± 1.9,89.5 ± 0.1,93.2 ± 0.7,–,–,–,–,–,–
"O=C1CCC(N2Cc3cc(NC(=O)c4ccc5occc5c4)ccc3C2=O)C(=O)N1 (centres unmarked) [DEG-62, N-(2-(2,6-dioxopiperidin-3-yl)-1-oxoisoindolin-5-yl)benzofuran-5-carboxamide]",6.4 ± 0.3,22.3 ± 0.5,50.2 ± 1.7,64.7 ± 0.4,2 ± 2.1,4.4 ± 1.9,61.1 ± 0.5,90.6 ± 0.1,–,–,–,–,–,–
"O=C1CCC(N2Cc3cc(NC(=O)Cc4ccc5ccccc5c4)ccc3C2=O)C(=O)N1 (centres unmarked) [DEG-71, N-(2-(2,6-dioxopiperidin-3-yl)-1-oxoisoindolin-5-yl)-2-(naphthalen-2-yl)acetamide]",98.5 ± 0.1,98.4 ± 0.1,−190.2 ± 2.8,−153 ± 2.3,63.1 ± 0.4,69.4 ± 0.6,93.8 ± 0.5,88.5 ± 3,–,–,–,–,–,–
"O=C1CCC(N2Cc3cc(NC(=O)C4=COc5ccccc5O4)ccc3C2=O)C(=O)N1 (centres unmarked) [DEG-63, N-(2-(2,6-dioxopiperidin-3-yl)-1-oxoisoindolin-5-yl)benzo[b][1,4]dioxine-2-carboxamide]",13.4 ± 0.7,35.2 ± 0.6,46.4 ± 1.4,60.3 ± 1.2,−0.1 ± 1.2,1.2 ± 0.3,70.8 ± 0.6,90.7 ± 0.2,–,–,–,–,–,–
"COc1ccc2c(CC(=O)Nc3ccc4c(c3)CN(C3CCC(=O)NC3=O)C4=O)cccc2c1 (centres unmarked) [DEG-58, N-(2-(2,6-dioxopipperidin-3-yl)-1-oxoisoindolin-5-yl)-2-(6-methoxynaphthalen-1-yl)acetamide]",97.7 ± 0.1,98.4 ± 0,63.4 ± 0.6,57 ± 0.1,29 ± 1.9,41.9 ± 0.8,93 ± 0.2,95.8 ± 0.1,–,–,–,–,–,–
"O=C1CCC(N2Cc3cc(NC(=O)c4ccc(Sc5ccccc5)cc4)ccc3C2=O)C(=O)N1 (centres unmarked) [DEG-73, N-(2-(2,6-dioxopiperidin-3-yl)-1-oxoisoindolin-5-yl)-4-(phenylthio)benzamide]",11.7 ± 0.3,26.3 ± 0.6,56.6 ± 1.2,60.4 ± 0.6,11.1 ± 1.4,19.8 ± 0.8,67.4 ± 1.2,87.8 ± 0.3,–,–,–,–,–,–
"O=C1CCC(N2Cc3cc(NC(=O)c4ccc5c(c4)OCCO5)ccc3C2=O)C(=O)N1 (centres unmarked) [DEG-53, N-(2-(2,6-dioxopiperidin-3-yl)-1-oxoisoindolin-5-yl)-2,3-dihydrobenzo[b]dioxine-6-carboxamide]",9.3 ± 0.8,8.8 ± 1.6,36.2 ± 4.5,55.4 ± 3.9,5 ± 1.4,2.4 ± 0.9,38.5 ± 0.2,76.5 ± 0.7,–,–,–,–,–,–
"COc1ccc2cccc(CC(=O)Nc3ccc4c(c3)CN(C3CCC(=O)NC3=O)C4=O)c2c1 (centres unmarked) [DEG-68, N-(2-(2,6-dioxopiperidin-3-yl)-1-oxoisoindolin-5-yl)-2-(7-methoxynaphthalen-1-yl)acetamide]",96.9 ± 0.1,97.6 ± 0.1,59.7 ± 1.2,64.4 ± 1.6,16.6 ± 1.3,21.3 ± 1.8,92.2 ± 0.1,94.4 ± 0.1,–,–,–,–,–,–
"CC(=O)Nc1ccc2c(c1)CN(C1CCC(=O)NC1=O)C2=O (centres unmarked) [DEG-66, N-(2-(2,6-dioxopiperidin-3-yl)-1-oxoisoindolin-5-yl)acetamide]",4.4 ± 0.8,10.9 ± 0.9,12 ± 1.3,25.4 ± 0.8,9.9 ± 0.8,8.6 ± 0.8,16.6 ± 0.1,48.5 ± 0.2,–,–,–,–,–,–

# Results, then the compound that gave them:
IKZF1% degradation at 100 nM [1] [%],IKZF1% degradation at 1 μM [1] [%],CK1α % degradation at 100 nM [2] [%],CK1α % degradation at 1 μM [2] [%],GSPT1% degradation at 100 nM [3] [%],GSPT1% degradation at 1 μM [3] [%],IKZF2% degradation at 100 nM [4] [%],IKZF2% degradation at 1 μM [4] [%],"Dmax ([1]; HEK-293T, Table 3) [%]","Dmax ([2]; CK1, Table 3, read-out: Dmax CK1a (%)) [%]","DC50 ([2]; Table 3, read-out: DC50 CK1a) [nM]","Dmax ([3]; HEK-293T, Table 3) [%]","Dmax ([4]; HEK-293T, Table 3) [%]",DC50 ([4]; Table 3) [nM],SMILES
15.5 ± 1,27.2 ± 0.7,51.1 ± 1.2,56.9 ± 0.8,1.2 ± 2.5,4 ± 0.6,74 ± 0.5,89.1 ± 0.4,–,–,–,–,–,–,"O=C1CCC(N2Cc3cc(NC(=O)c4ccc5c(c4)CCCC5)ccc3C2=O)C(=O)N1 (centres unmarked) [DEG-87, N-(2-(2,6-dioxopiperidin-3-yl)-1-oxoisoindolin-5-yl)-5,6,7,8-tetrahydronaphthalene-2-carboxamide]"
12.3 ± 0.9,22.6 ± 0.5,46.5 ± 2.5,54.7 ± 1.2,5.3 ± 2,9.2 ± 0.7,48.7 ± 1.1,62.6 ± 0.5,–,–,–,–,–,–,"O=C1CCC(N2Cc3cc(NC(=O)C4=Cc5cc(Br)cc(Br)c5OC4)ccc3C2=O)C(=O)N1 (centres unmarked) [DEG-86, 6,8-dibromo-N-(2-(2,6-dioxopiperidin-3-yl)-1-oxoisoindolin-5-yl)-2H-chromene-3-carboxamide]"
4.9,7.0,60.2,74.6,7.8,10.6,56.0,87.7,10.4,78.9,21.1,14.6,95.1,73.1,"CS(=O)(=O)c1ccc2cc(C(=O)Nc3ccc4c(c3)CN(C3CCC(=O)NC3=O)C4=O)ccc2c1 (centres unmarked) [DEG-93, N-(2-(2,6-dioxopiperidin-3-yl)-1-oxoisoindolin-5-yl)-6-(methylsulfonyl)-2-naphthamide]"
8.7 ± 1.8,17.2 ± 1.2,64.1 ± 0.8,69.9 ± 0.5,12.1 ± 0.5,21.3 ± 1.7,81.8 ± 0.4,92.8 ± 0,–,–,–,–,–,–,"COc1cc(C(=O)Nc2ccc3c(c2)CN(C2CCC(=O)NC2=O)C3=O)ccc1Oc1ccccc1 (centres unmarked) [DEG-76, N-(2-(2,6-dioxopiperidin-3-yl)-1-oxoisoindolin-5-yl)-3-methoxy-4-phenoxybenzamide]"
12.6 ± 0.5,26.1 ± 0.5,64.7 ± 0.1,68 ± 1.8,1.6 ± 1.1,4.1 ± 2.6,74.4 ± 0.4,87.8 ± 0.2,–,–,–,–,–,–,"COc1cc(Br)cc2c1OCC(C(=O)Nc1ccc3c(c1)CN(C1CCC(=O)NC1=O)C3=O)=C2 (centres unmarked) [DEG-84, 6-bromo-N-(2-(2,6-dioxopiperidin-3-yl)-1-oxoisoindolin-5-yl)-8-methoxy-2H-chromene-3-carboxamide]"
8 ± 0.5,17.4 ± 3.3,66.3 ± 2,72 ± 0.3,2.8 ± 0.8,11.9 ± 1.9,75.1 ± 0.5,91.8 ± 0.1,–,–,–,–,–,–,"O=C1CCC(N2Cc3cc(NC(=O)C4=Cc5ccc(C(F)(F)F)cc5OC4)ccc3C2=O)C(=O)N1 (centres unmarked) [DEG-81, N-(2-(2,6-dioxopiperidin-3-yl)-1-oxoisoindolin-5-yl)-7-(trifluoromethyl)-2H-chromene-3-carboxamide]"
10.6 ± 1.2,19.9 ± 0.3,58 ± 2.2,62.7 ± 1.4,6.1 ± 0.3,12.3 ± 0.9,85.4 ± 0,93.3 ± 0.1,–,–,–,–,–,–,"O=C1CCC(N2Cc3cc(NC(=O)C4=Cc5ccc(OC(F)(F)F)cc5OC4)ccc3C2=O)C(=O)N1 (centres unmarked) [DEG-82, N-(2-(2,6-dioxopiperidin-3-yl)-1-oxoisoindolin-5-yl)-7-(trifluoromethoxy)-2H-chromene-3-carboxamide]"
